Reference: patent publication US20110236359A1 (priority 2007, published 2011)

Experiments:
[1] = system: vancomycin-resistant Enterococcus faecium (VRE) clinical isolate; assay: Agar well-diffusion assay against VRE clinical isolate; type: cell-based; conditions: all concentrations evaluated between 0 to 800 μg/ml; data not shown
Experimental: A clinical isolate of vancomycin-resistant Enterococcus faecium (VRE) was provided by the Centre Hospitalier de l'Université de Montréal microbiology laboratory (CHUM; Montreal, QC, Canada). […] The E. faecium strain was maintained in brain-heart infusion (BHI; Difco) for E. faecium containing 10% glycerol (w/v).
An agar well-diffusion assay was performed to verify the antimicrobial capacity of the neutralized cell-free supernatant (CFS) against a VRE clinical isolate. CFS was obtained as described before. A volume of 30 ml of cooled (45° C.) sterile BHI agar, containing 0.75% agar, was inoculated with 10^7 colony-forming units (CFU)/ml of VRE, poured into a […] standard Petri dishes and allowed to solidify for 30 minutes at room temperature. Wells of 6 mm in diameter were cut-out and […] of antimicrobial agent were placed into each well. All plates were then placed at 4° C. for 30 minutes, incubated at 37° C. for 24 h and examined for inhibition zones. Inhibition was scored positive if the width of the clearing zone around the well was 0.5 mm. Antibiotics were also evaluated with this method to ascertain the resistance of the VRE strain. Vancomycin and clindamycin (Sigma-Aldrich, Oakville, ON, Canada) were used in concentrations ranging from 0 to 800 μg/ml. […]

[2] = system: Lactococcus lactis subsp. lactis MM19; assay: Antibiotic MIC plates (resistance profile); type: cell-based; conditions: Lactococcus lactis
From the text: (§1) The protocol was adapted from Delgado et al. (2005). Minimum Inhibitory Concentration (MIC) Plate (# GPN3F) and Anaerobe MIC Plate (# AN02B) were used to determine the antibiotic sensitivity and resistance profile of MM19 and MM33 according to the instructions of the manufacturer (Trek Diagnostic Systems; Nova Century, Burlington, ON, Canada).
(§2) Lactococcus lactis subsp. lactis MM19, Pediococcus acidilactici MM33 and Lactobacillus rhamnosus GG (ATCC 53103) from frozen glycerol stock were first inoculated in Lactobacilli MRS and incubated at 37° C. for 18 h. 100 μl of this culture were further incubated under the same conditions. This second culture was then inoculated on a MRS agar plate and incubated at 37° C. for 48 h under anaerobic conditions using GasPak Plus system (BD BBL, Sparks, Md., USA).

[3] = system: Lactobacillus rhamnosus GG (ATCC 53103); assay: Antibiotic MIC plates (resistance profile); type: cell-based; conditions: Lacticaseibacillus rhamnosus, ATCC53103
From the text: as §1, §2

[4] = system: Pediococcus acidilactici MM33; assay: Antibiotic MIC plates (resistance profile); type: cell-based; conditions: Pediococcus acidilactici, MM33
From the text: as §1, §2

[5] = system: L. monocytogenes HPB 2812 serotype ½a; assay: Inhibitory activity of purified pediocin on growth in broth; type: cell-based, Listeria monocytogenes; conditions: for Viable counts: from 9.14
Experimental: Different amounts of purified bacteriocin (0 to 800 AU/ml) were added to cultures of L. monocytogenes HPB 2812 serotype ½a in early exponential phase (grown for 6 h) and incubated at 37° C. Bacterial growth was monitored by measuring the bacterial population in a 1 ml sample taken every 2 h of incubation. These samples were serially diluted ten-fold in peptone water (0.1% w/v), pour-plated in BHI agar and then incubated at 37° C. for 24 h. Colonies were counted using Darkfield Quebec Colony Counter (American Optical, Scientific instrument division, Keene, Ohio, USA).

## CN[C@H](CC(C)C)C(=O)N[C@H]1C(=O)N[C@@H](CC(N)=O)C(=O)N[C@H]2C(=O)N[C@H]3C(=O)N[C@H](C(=O)N[C@H](C(=O)O)c4cc(O)cc(O)c4-c4cc3ccc4O)[C@H](O)c3ccc(c(Cl)c3)Oc3cc2cc(c3O[C@@H]2O[C@H](CO)[C@@H](O)[C@H](O)[C@H]2O[C@H]2C[C@](C)(N)[C@H](O)[C@H](C)O2)Oc2ccc(cc2Cl)[C@H]1O [VAN, Vancomycin]
[1]
  Sensitivity of the VRE clinical isolate (in words): resistant
[2]
  MIC: < 1 µg/mL
[3]
  MIC: > 128 µg/mL
[4]
  MIC: > 128 µg/mL

## pediocin (KYYGNGVTCGKHSCSVDWGKATTCIINNGAMAWATGGHQGNHKC; Pediococcus acidilactici MM33)
[5]; at least 200 AU ml^−1 added into the culture medium
  Decrease in viable CFU ml^−1: more than 99.9%
[5]; two hours after addition of 100 AU ml^−1
  Viable counts: 8.7 log CFU ml^−1
[5]; two hours after addition of 200 AU ml^−1
  Viable counts: 6.0 log CFU ml^−1
[5]; two hours after addition of 400 AU ml^−1
  Viable counts: 4.36 log CFU ml^−1
[5]; two hours after addition of 800 AU ml^−1
  Viable counts: 2.81 log CFU ml^−1
